Reference: patent US20080286373A1, “Ziprasidone formulations” (priority 2007, published 2008)
Where a name gives a salt, the structure may show the parent alone. Each block holds one molecule with its values, some of them ahead of it.

Key:
[1] = Within 45 minutes; pH 7.5, 900 ml aqueous monobasic sodium phosphate with 2w/v % Na dodecyl sulfate, USP 2 paddles 75 rpm; formulation of U.S. Pat. No. 6,150,366, mean particle size <85 microns; cited from earlier work
[2] = Solubility of ziprasidone hydrochloride monohydrate in various solvents (Table 1); type: physicochemical
[3] = Solubility of ziprasidone hydrochloride monohydrate in excipients (Table 2); type: physicochemical
Procedure: Solubility in various excipients that are frequently used to improve solubility was also tested and the results thereof are in Table 2 below.

Molecule: Ziprasidone
ziprasidone dissolved [1]: 70%

solubility ([2]; solvent ACN): <1%
solubility ([2]; solvent Acetone): <1%
solubility ([2]; solvent Acetone/water): <1%
solubility ([2]; solvent DCM): <1%
solubility ([2]; solvent DMF/DMA/DMSO): 1.5%
solubility ([2]; solvent DMF/water 80/20): <1%
solubility ([2]; solvent Ethanol): <1%
solubility ([2]; solvent Isopropanol): <1%
solubility ([2]; solvent Methanol): 1.5%
solubility ([2]; solvent Methanol/acetic acid 90/10): <1%
solubility ([2]; solvent Methanol/water 60/40): <1%
solubility ([2]; solvent Methanol/water 80/20): 1.5%
solubility ([2]; solvent THF): <1%
solubility ([3]; 0.1 N HCl solution, simulated gastric fluid): 500 µg/mL
solubility ([3]; 5% caprolactam in water, aqueous with cosolvent or surfactant or cyclodextrin, 5% caprolactam in solution in water): 300 µg/mL
solubility ([3]; 20% Lactic acid in PEG 400, organic solvent or mixture): 1300 µg/mL
solubility ([3]; 20% Lutrol in TPGS, organic solvent or mixture): 1000 µg/mL
solubility ([3]; Benzyl alcohol, organic solvent or mixture): 2900 µg/mL
solubility ([3]; Benzyl benzoate, organic solvent or mixture): 300 µg/mL
solubility ([3]; Ethanol, organic solvent or mixture): 400 µg/mL
solubility ([3]; Gelucire 44/14, oil or lipid): 1000 µg/mL
solubility ([3]; Gelucire 50/13, oil or lipid): 1000 µg/mL
solubility ([3]; Glacial acetic acid, organic solvent or mixture): 2800 µg/mL
solubility ([3]; Glycerol, organic solvent or mixture): 1250 µg/mL
solubility ([3]; Labrofac (Capric triglyceride PEG-4 ester), oil or lipid): 900 µg/mL
solubility ([3]; Lactic acid (85% strength), organic solvent or mixture): 10000 µg/mL
solubility ([3]; Maisine 35-1 (glycerol monolinoleate), oil or lipid): 1000 µg/mL
solubility ([3]; N-methyl 2-pyrrolidone, organic solvent or mixture): 10000 µg/mL
solubility ([3]; PEG 400, organic solvent or mixture): 2500 µg/mL
solubility ([3]; PEG 6000, organic solvent or mixture): 2500 µg/mL
solubility ([3]; Peceol (glycerol monooleate 40), oil or lipid): 1000 µg/mL
solubility ([3]; Propylene glycol, organic solvent or mixture): 2000 µg/mL
solubility ([3]; Span 80, organic solvent or mixture): 500 µg/mL
solubility ([3]; Tween 20, organic solvent or mixture): 3000 µg/mL
solubility ([3]; Tween 80, organic solvent or mixture): 2100 µg/mL
solubility ([3]; Water): 30 µg/mL
solubility ([3]; aqueous buffer, Phosphate buffer pH 6.8 (without SLS)): < 10 µg/mL
Molecule: O=C1Cc2cc(CCN3CCN(c4nsc5ccccc45)CC3)c(Cl)cc2N1 [Ziprasidone HCl monohydrate, ziprasidone hydrochloride monohydrate]
